# Source: US8653023B1, “Dual beneficial effect of dopamine enhancing and neuroprotective actions of PKC delta inhibitors for treatment of Parkinson's disease” (Iowa State University Research Foundation, Inc., priority 2006, dated 2014)
# Where two headings read alike, the source gives them in different places. * marks the point of attachment. Cbz = O=C(OCc1ccccc1)*; CH2F = FC*
# Experiments:
# [1] = tested on: dopaminergic neuronal cells; assay: MPP+ induced DNA fragmentation (genomic DNA fragmentation assay); format: cell-based
# Source text: (§1) The ability of a PKCd inhibitor to decrease PKCd activity, for example, neurodegeneration or apoptotic activity, can be assessed using standard techniques known to one skilled in the art, including commercially available assays. These include apoptotic DNA Ladder assays, Cell Death Detection ELISA^PLUS (from Roche Applied Sciences), Caspase-3 Activity Assay^PLUS (from Roche Applied Sciences), terminal deoxynucleotidyl transferase-mediated dUTP [deoxy-uridine triphosphate] nick end labeling (TUNEL) assays. DNA-binding dyes or stains such as […] or DAPI or propidium iodide may be used to assess nuclear morphology and DNA damage. Kaul S, Kanthasamy A, Kitazawa M, Anantharam V, Kanthasamy A G, Caspase-3 dependent proteolytic activation of protein kinase C delta mediates and regulates 1-methyl-4-phenylpyridinium (MPP^+)-induced apoptotic cell death in dopaminergic cells: relevance to oxidative stress in dopaminergic degeneration. Eur J Neurosci. 2003 September; 18(6):1387-401.
# [2] = tested on: dopaminergic neuronal cells; assay: 6-OHDA-induced DNA fragmentation (genomic DNA fragmentation assay); format: cell-based
# Source text: as §1
substance,measurement,setting,value
N-benzyloxycarbonyl-Asp(OMe)-Ile-Pro-Asp(OMe)-FMK (Cbz-D(OMe)IPD(OMe)-CH2F; SMILES CC[C@H](C)[C@H](NC(=O)[C@H](CC(=O)OC)NC(=O)OCc1ccccc1)C(=O)N1CCC[C@H]1C(=O)N[C@@H](CC(=O)OC)C(=O)CF; listed as Homo sapiens),MPP+ induced DNA fragmentation,[1],inhibited
same,6-OHDA-induced DNA fragmentation,[2],effectively blocked
same,6-OHDA-induced DNA fragmentation,[2]; concentration as low as 3 μM,almost completely inhibits
